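Dose response: 5 concentrations. Exposure: 48 h. Format: 96-well plates. Endpoint: linear interpolation; highest concentration if not reached. GI50 is the concentration that inhibits growth by half. Definition used: TGI = concentration required for complete inhibition of growth.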
How the values were obtained:
Assay in all cases: inhibition of tumour cell growth, NCI panel, 48 h
[1] = test system: CAKI-1 renal
[2] = test system: OVCAR-5 ovarian
[3] = test system: 786-0 renal
[4] = test system: LOX IMVI melanoma
[5] = test system: A498 renal
[6] = test system: RPMI-8226 leukemia
[7] = test system: NCI-H226 lung
[8] = test system: HS 578T breast
[9] = test system: DMS 273 small cell lung

SMILES	GI50 [1] [µM]	TGI [1] [µM]	GI50 [2] [µM]	TGI [2] [µM]	GI50 [3] [µM]	TGI [3] [µM]	GI50 [4] [µM]	TGI [4] [µM]	GI50 [5] [µM]	TGI [5] [µM]	GI50 [6] [µM]	TGI [6] [µM]	GI50 [7] [µM]	TGI [7] [µM]	GI50 [8] [µM]	TGI [8] [µM]	TGI [9] [µM]
N#Cc1nn(-c2cc(=O)[nH]c3ccc(Br)cc23)c(N)c1C#N	> 100	> 100	> 100	> 100	> 100	> 100	> 100	> 100	> 100	> 100	> 100	> 100	> 100	> 100	64.9	> 100	
Cc1c(CC/C(=N\Nc2ccc([N+](=O)[O-])cc2[N+](=O)[O-])c2ccccc2)c2ccccc2n1C		> 100		> 100		> 100		> 100		> 100		> 100		> 100			> 100
COc1cc(Nc2nc3cc(C(F)(F)F)ccc3nc2C)cc(OC)c1OC		20.8		26.7		24.8		10.9		18.8				22.8			30
CCOCCOC[C@H]1CCCN(c2ccnc3sc(C(N)=O)c(N)c23)C1	30.5	> 100	> 100	> 100	> 100	> 100	29.3	> 100	> 100	> 100	1.65	> 100	> 100	> 100	44.1	> 100	
O=C(NCCCCCCNC(=O)OCc1ccc2c(Cl)cc(Cl)c(O)c2n1)OCc1ccc2c(Cl)cc(Cl)c(O)c2n1	0.412	1.69	1.5	3.01	1.28	2.67	0.325	1.1	1.25	2.55	0.311	1.68	1.07	2.54	1.46	5.68	
C=C(C)[C@@H]1CC[C@]2(C(N)=O)CC[C@]3(C)[C@H](CC[C@@H]4[C@@]5(C)C/C(=C/c6cccnc6)[C@H](O)C(C)(C)[C@@H]5CC[C@]43C)[C@@H]12	2.15	28.4	3.61	> 100	6.24	> 100	4.38	37.1	10.4	> 100	2.5	48.3	4.98	> 100	8.3	> 100	
CC(C)(C)c1cc(-c2nc3c(F)c(F)c(F)c(F)c3[nH]2)cc(C(C)(C)C)c1O	> 100	> 100	> 100	> 100	> 100	> 100	> 100	> 100	> 100	> 100	> 100	> 100	> 100	> 100	> 100	> 100	
COc1ccccc1NC(=O)C(CC(C(=O)Nc1ccccc1OC)/C(C)=N/NC(=O)c1ccccc1O)/C(C)=N/NC(=O)c1ccccc1O (stereo unspecified)		> 100		> 100		> 100		> 100		> 100		> 100		> 100			> 100
Cc1ccc2c(c1)C=CC(C#N)N2C(=O)Oc1ccccc1 (stereo unspecified)		> 100		> 100		> 100		40		55.4		52.6		99.9		> 100	
